Assay results taken from patent publication EP1161424B1, “NEW DIAZOLE DERIVATIVES AS SEROTONERGIC AGENTS” (Wyeth, priority 1999, dated 2000).

Tests used:
[1] = target: T1, human 5HT1A receptor (Homo sapiens, UniProt P08908); experiment: 5-HT1A receptor binding assay ([3H] 8-OH-DPAT displacement); settings: displacement of [3H] 8-OH-DPAT (1.5 nM) in CHO cells stably transfected with the human 5HT1A receptor
T1 construct: expressed in transfected cells; host or cells: CHO cells, stably transfected
T1 sequence (P08908 1-422): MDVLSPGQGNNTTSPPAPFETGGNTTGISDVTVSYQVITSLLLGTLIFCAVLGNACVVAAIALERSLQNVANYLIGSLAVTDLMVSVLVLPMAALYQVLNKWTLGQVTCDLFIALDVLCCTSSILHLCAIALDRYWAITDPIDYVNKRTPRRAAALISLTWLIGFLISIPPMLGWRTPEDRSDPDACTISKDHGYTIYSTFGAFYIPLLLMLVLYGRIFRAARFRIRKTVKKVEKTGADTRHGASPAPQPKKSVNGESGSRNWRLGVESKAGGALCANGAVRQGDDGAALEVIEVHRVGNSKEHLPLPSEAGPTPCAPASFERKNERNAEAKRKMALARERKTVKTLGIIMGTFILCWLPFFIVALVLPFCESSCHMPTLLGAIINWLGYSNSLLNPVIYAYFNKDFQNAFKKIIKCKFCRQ
Protocol: 5-HT1A Receptor Binding Assay
High affinity for the serotonin 5-HT1A receptor was established by testing the claimed compound's ability to displace [^3H] 8-OH-DPAT binding in CHO cells stably transfected with the human 5HT1A receptor. Stably transfected CHO cells are grown in DMEM containing 10% heat inactivated FBS and non-essential amino acids. Cells are scraped off the plate, transferred to centrifuge tubes, and washed twice by centrifugation (2000 rpm for 10 min., 4°C) in buffer (50 mM Tris pH 7.5). The resulting pellets are aliquoted and placed at -80°C. On the day of assay, the cells are thawed on ice and resuspended in buffer. The binding assay is performed in a 96 well microtiter plate in a total volume of […]. Non-specific binding is determined in the presence of […] 5-HT, final ligand concentration is 1.5 nM. Following a 30 minute incubation at room temperature, the reaction is terminated by the addition of ice cold buffer and rapid filtration through a GF/B filter presoaked for 30 minutes in 0.5% PEI. Compounds are initially tested in a single point assay to determine percent inhibition at […], and Ki values are determined for the active compounds.

[2] = target: T1, human 5HT1A receptor; experiment: 5-HT1A receptor intrinsic activity assay (cAMP, RIA); assay type: cell-based; settings: for cAMP Emax: agonist activity: reversal of forskolin-stimulated cAMP in CHO cells with human 5-HT1A receptor, % printed only; for IC50: antagonist, reversal of agonist induced activity, compounds with Emax = 0 %, preincubated 20 minutes before agonist and forskolin
Protocol: 5-HT1A Receptor Intrinsic Activity Assay
The intrinsic activity of compounds of the present invention was established by testing the claimed compounds ability to reverse the stimulation of cyclic adenosinemonophosphate (cAMP) in CHO cells stably transfected with the human 5-HT1A receptor. Stably transfected CHO cells were grown in DMEM containing 10% heat inactivated FBS and non-essential amino acids. The cells are plated at a density of […] per well in a 24 well plate and incubated for 2 days in a CO2 incubator. On the second day, the media is replaced with 0.5 mL treatment buffer (DMEM + 25 mM HEPES, 5 mM theophylline, […] pargyline) and incubated for 10 minutes at 37°C. Wells are treated with forskolin ([…]) followed immediately by the test compound ([…] for initial screen) and incubated for an additional 10 minutes at 37°C. The reaction is terminated by removal of the media and addition of 0.5 mL ice cold assay buffer (supplied in the RIA kit). Plates are stored at -20°C prior to assessment of cAMP formation by RIA. EC50 values are determined for the active test compounds. Compounds shown to have no agonist activities (Emax = 0 %) are further analyzed for their ability to reverse agonist induced activity. In separate experiments, 6 concentrations of antagonist are preincubated for 20 minutes prior to the addition of agonist and forskolin. Cells are harvested as described above. The cAMP kit is supplied by Amersham and the RIA is performed as per kit instructions, and calculations of IC50 performed by GraphPad Prism.

Row | IC50 [2] [nM] | Structure (SMILES) | Ki [1] [nM] | cAMP Emax [2] [%] | EC50 ([2]; agonist, reversal of forskolin-stimulated cAMP in transfected CHO cells) [nM]
1 |  | O=C(N[C@@H](Cc1ccccc1)CN1CCN(c2nsnc2Cl)CC1)C1CCCCC1.O=C(O)/C=C/C(=O)O [Compound 4, Cyclohexanecarboxylic acid {(1S)-1-benzyl-2-(4-(4-chloro[1,2,5}thiadiazol-3-yl)piperazin-1-yl]ethyl}amide fumarate] | 0.84 | 93.00 | 4.61
2 |  | O=C(N[C@@H](Cc1ccccc1)CN1CCN(c2nsnc2Cl)CC1)c1ccncc1 [Compound 5] | 425 |  | 
3 | 72.7 | COc1nsnc1N1CCN(C[C@@H](Cc2ccccc2)N(C)C(=O)C2CCCCC2)CC1 [Compound 8, Cyclohexanecarboxylic acid {(1R)-1-benzyl-2-[4-(4-methoxy-[1,2,5]thiadiazol-3-yl)-piperazine-1-yl]ethyl}methyl amide] | 1.55 | 0.00 | 
4 |  | COc1nsnc1N1CCN(CC(Cc2ccccc2)N(C)C(=O)c2ccccc2)CC1 (centres unmarked) [Compound 9, N-{1-Benzyl-2-[4-(4-methoxy-[1,2,5]thiadiazol-3-yl)piperazin-1-yl]ethyl]-N-methylbenzamide] | 9.87 |  | 
5 | 113 | COc1nsnc1N1CCN(C[C@@H](Cc2cccnc2)NC(=O)C2(C)CCCCC2)CC1 [Compound 11, 1-Methylcyclohexanecarboxylic acid {(1R)-2-[4-(4-methoxy-[1,2,5]thiadiazol-3-yl)-piperazin-1-yl]-1-pyridin-3-ylmethylethyl} amide] | 3.04 | 0.000 | 

Row | Structure (SMILES) | IC50 [2] [nM] | Ki [1] [nM] | cAMP Emax [2] [%] | EC50 ([2]; agonist, reversal of forskolin-stimulated cAMP in transfected CHO cells) [nM]
6 | CN(C(=O)C1CCCCC1)[C@H](Cc1ccccc1)CN1CCN(c2nsnc2Cl)CC1 [Compound 7] | 49.3 | 4.55 | 0.00 | 
